Test results as given in US20210154190A1, “SHP2 INHIBITOR COMPOSITIONS AND METHODS FOR TREATING CANCER” (Revolution Medicines, Inc., priority 2018, published 2021).

Key:
Type in all cases: cell-based
SHP2 E76K = target: T1, SHP2 E76K (Homo sapiens, UniProt Q06124, E76K); assay: EGF-induced pERK AlphaLISA in T-REx-293-SHP2 cells, E76K; settings: Variant E76K
T1 construct: expressed in transfected cells; host or cells: Flp-In T-REx-293 (T-REx-293-SHP2)
Description: (§1) An experimental system was creating to test the activity of SHP2 mutants on an isogenic background (FIG. 6). The Flp-In T-REx-293 cell line was obtained from Gibco® and cultivated in high glucose DMEM™ containing 2 mM L-glutamine (Hyclone®), supplemented with 10% FBS (Hyclone®), 1% penicillin/streptomycin (Gibco®), 100 μg/mL Zeocin™ (Gibco®), and 15 μg/mL blasticidin (Gibco®) in a humidified cell culture incubator at 37° C., 5% CO2.
(§2) Wild type or mutant SHP2 variants were synthesized and subcloned into the pcDNA5/FRT/TO vector (ThermoFisher). Plasmids were co-transfected with the pOG44 Flp recombinase expression plasmid (ThermoFisher®) into Flp-In T-REx-293 cells using X-tremegene 9 DNA transfection reagent (Sigma®), according to the manufacturer's instructions. […]
(§3) For the final 5 minutes of drug treatment, cells were stimulated with 50 ng/mL Epidermal Growth Factor (Sigma®). […] Samples were read using an EnVision Multilabel Plate Reader (Perkin Elmer®) using standard AlphaLISA settings. Assay data was plotted and EC50 values were determined using four-parameter concentration-response model in GraphPad Prism 7. […]

SHP2 D61G = target: T2, SHP2 D61G (Homo sapiens, UniProt Q06124, D61G); assay: EGF-induced pERK AlphaLISA in T-REx-293-SHP2 cells, D61G; settings: Variant D61G
T2 construct: expressed in transfected cells; host or cells: Flp-In T-REx-293 (T-REx-293-SHP2)
Description: as §1, §2, §3

SHP2 S189A = target: T3, SHP2 S189A (Homo sapiens, UniProt Q06124, S189A); assay: EGF-induced pERK AlphaLISA in T-REx-293-SHP2 cells, S189A; settings: Variant S189A
T3 construct: expressed in transfected cells; host or cells: Flp-In T-REx-293 (T-REx-293-SHP2)
Description: as §1, §2, §3

SHP2 L262R = target: T4, SHP2 L262R (Homo sapiens, UniProt Q06124, L262R); assay: EGF-induced pERK AlphaLISA in T-REx-293-SHP2 cells, L262R; settings: Variant L262R
T4 construct: expressed in transfected cells; host or cells: Flp-In T-REx-293 (T-REx-293-SHP2)
Description: as §1, §2, §3

SHP2 P491S = target: T5, SHP2 P491S (Homo sapiens, UniProt Q06124, P491S); assay: EGF-induced pERK AlphaLISA in T-REx-293-SHP2 cells, P491S; settings: Variant P491S
T5 construct: expressed in transfected cells; host or cells: Flp-In T-REx-293 (T-REx-293-SHP2)
Description: as §1, §2, §3

SHP2 F285S = target: T6, SHP2 F285S (Homo sapiens, UniProt Q06124, F285S); assay: EGF-induced pERK AlphaLISA in T-REx-293-SHP2 cells, F285S; settings: Variant F285S
T6 construct: expressed in transfected cells; host or cells: Flp-In T-REx-293 (T-REx-293-SHP2)
Description: as §1, §2, §3

SHP2 S502P = target: T7, SHP2 S502P (Homo sapiens, UniProt Q06124, S502P); assay: EGF-induced pERK AlphaLISA in T-REx-293-SHP2 cells, S502P; settings: Variant S502P
T7 construct: expressed in transfected cells; host or cells: Flp-In T-REx-293 (T-REx-293-SHP2)
Description: as §1, §2, §3

SHP2 A72V = target: T8, SHP2 A72V (Homo sapiens, UniProt Q06124, A72V); assay: EGF-induced pERK AlphaLISA in T-REx-293-SHP2 cells, A72V; settings: Variant A72V
T8 construct: expressed in transfected cells; host or cells: Flp-In T-REx-293 (T-REx-293-SHP2)
Description: as §1, §2, §3

SHP2 G60V = target: T9, SHP2 G60V (Homo sapiens, UniProt Q06124, G60V); assay: EGF-induced pERK AlphaLISA in T-REx-293-SHP2 cells, G60V; settings: Variant G60V
T9 construct: expressed in transfected cells; host or cells: Flp-In T-REx-293 (T-REx-293-SHP2)
Description: as §1, §2, §3

SHP2 E69K = target: T10, SHP2 E69K (Homo sapiens, UniProt Q06124, E69K); assay: EGF-induced pERK AlphaLISA in T-REx-293-SHP2 cells, E69K; settings: Variant E69K
T10 construct: expressed in transfected cells; host or cells: Flp-In T-REx-293 (T-REx-293-SHP2)
Description: as §1, §2, §3

SHP2 G503V = target: T11, SHP2 G503V (Homo sapiens, UniProt Q06124, G503V); assay: EGF-induced pERK AlphaLISA in T-REx-293-SHP2 cells, G503V; settings: Variant G503V
T11 construct: expressed in transfected cells; host or cells: Flp-In T-REx-293 (T-REx-293-SHP2)
Description: as §1, §2, §3

SHP2 T73I = target: T12, SHP2 T73I (Homo sapiens, UniProt Q06124, T73I); assay: EGF-induced pERK AlphaLISA in T-REx-293-SHP2 cells, T73I; settings: Variant T73I
T12 construct: expressed in transfected cells; host or cells: Flp-In T-REx-293 (T-REx-293-SHP2)
Description: as §1, §2, §3

SHP2 Q506P = target: T13, SHP2 Q506P (Homo sapiens, UniProt Q06124, Q506P); assay: EGF-induced pERK AlphaLISA in T-REx-293-SHP2 cells, Q506P; settings: Variant Q506P
T13 construct: expressed in transfected cells; host or cells: Flp-In T-REx-293 (T-REx-293-SHP2)
Description: as §1, §2, §3

SHP2 T253M/Q257L = target: T14, SHP2 T253M/Q257L (Homo sapiens, UniProt Q06124, Q257L/T253M); assay: EGF-induced pERK AlphaLISA in T-REx-293-SHP2 cells, T253M/Q257L; set-up: expressed in transfected cells; host or cells: Flp-In T-REx-293 (T-REx-293-SHP2)
T14 sequence (Q06124 1-593 T253M/Q257L): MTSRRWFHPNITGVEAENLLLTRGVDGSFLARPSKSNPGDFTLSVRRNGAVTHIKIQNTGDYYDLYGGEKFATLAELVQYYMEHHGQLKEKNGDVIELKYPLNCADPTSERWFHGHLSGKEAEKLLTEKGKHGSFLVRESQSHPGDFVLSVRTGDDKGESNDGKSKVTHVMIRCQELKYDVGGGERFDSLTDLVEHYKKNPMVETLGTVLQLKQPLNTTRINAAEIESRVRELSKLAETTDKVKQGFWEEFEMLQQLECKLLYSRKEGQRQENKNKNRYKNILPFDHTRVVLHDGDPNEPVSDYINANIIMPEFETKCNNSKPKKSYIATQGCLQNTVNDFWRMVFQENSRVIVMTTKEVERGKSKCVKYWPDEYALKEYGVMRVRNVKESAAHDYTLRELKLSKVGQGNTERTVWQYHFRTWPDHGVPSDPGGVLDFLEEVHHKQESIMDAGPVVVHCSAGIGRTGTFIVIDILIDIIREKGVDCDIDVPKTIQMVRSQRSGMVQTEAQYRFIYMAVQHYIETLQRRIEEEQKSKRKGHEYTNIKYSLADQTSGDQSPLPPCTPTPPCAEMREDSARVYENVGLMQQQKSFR
Description: as §1, §2, §3

For Cc1nc(N2CCC3(CC2)CO[C@@H](C)[C@H]3N)c(CO)nc1-c1cccc(Cl)c1Cl [Compound B], the Cellular sensitivity (SHP2 E76K) was “no (Sensitive if IC50 < 2000 nM)”, the Cellular sensitivity (SHP2 D61G) was “yes (Sensitive if IC50 < 2000 nM)” and the Cellular sensitivity (SHP2 S189A) was “yes (Sensitive if IC50 < 2000 nM)”. For the same molecule, the Cellular sensitivity (SHP2 L262R) was “yes (Sensitive if IC50 < 2000 nM)”, the Cellular sensitivity (SHP2 P491S) was “no (Sensitive if IC50 < 2000 nM)” and the Cellular sensitivity (SHP2 F285S) was “yes (Sensitive if IC50 < 2000 nM)”. The Cellular sensitivity (SHP2 S502P) was “yes (Sensitive if IC50 < 2000 nM)”, the Cellular sensitivity (SHP2 A72V) was “no (Sensitive if IC50 < 2000 nM)” and the Cellular sensitivity (SHP2 G60V) was “no (Sensitive if IC50 < 2000 nM)”. The Cellular sensitivity (SHP2 E69K) was “yes (Sensitive if IC50 < 2000 nM)”, the Cellular sensitivity (SHP2 G503V) was “no (Sensitive if IC50 < 2000 nM)” and the Cellular sensitivity (SHP2 T73I) was “yes (Sensitive if IC50 < 2000 nM)”. The Cellular sensitivity (SHP2 Q506P) was “yes (Sensitive if IC50 < 2000 nM)”, the “inhibition of engineered double mutant in the Compound B binding site” value (SHP2 T253M/Q257L; T253M/Q257L, cellular pERK) was “insensitive to inhibition” and the Cellular sensitivity (SHP2 T253M/Q257L; Variant T253M/Q257L) was “no (Sensitive if IC50 < 2000 nM)”.
